# In patent US9776972B2, “Pyrazole derivatives as arginine methyltransferase inhibitors and uses thereof” (priority 2013, dated 2017):
# pIC50: −log10 of the molar value. Where two headings read alike, the source gives them in different places.
# Key:
# human PRMT1 = molecular target: T1, human PRMT1 (Homo sapiens, UniProt Q99873); experiment: PRMT1 Biochemical Assay (3H-SAM Flashplate, peptide substrate); conditions: single experiment or average of multiple experiments
# T1 construct: GST-tagged PRMT1; made in house; host or cells: High Five insect cells (baculovirus)
# T1 sequence (Q99873 with tags, fused parts or gaps): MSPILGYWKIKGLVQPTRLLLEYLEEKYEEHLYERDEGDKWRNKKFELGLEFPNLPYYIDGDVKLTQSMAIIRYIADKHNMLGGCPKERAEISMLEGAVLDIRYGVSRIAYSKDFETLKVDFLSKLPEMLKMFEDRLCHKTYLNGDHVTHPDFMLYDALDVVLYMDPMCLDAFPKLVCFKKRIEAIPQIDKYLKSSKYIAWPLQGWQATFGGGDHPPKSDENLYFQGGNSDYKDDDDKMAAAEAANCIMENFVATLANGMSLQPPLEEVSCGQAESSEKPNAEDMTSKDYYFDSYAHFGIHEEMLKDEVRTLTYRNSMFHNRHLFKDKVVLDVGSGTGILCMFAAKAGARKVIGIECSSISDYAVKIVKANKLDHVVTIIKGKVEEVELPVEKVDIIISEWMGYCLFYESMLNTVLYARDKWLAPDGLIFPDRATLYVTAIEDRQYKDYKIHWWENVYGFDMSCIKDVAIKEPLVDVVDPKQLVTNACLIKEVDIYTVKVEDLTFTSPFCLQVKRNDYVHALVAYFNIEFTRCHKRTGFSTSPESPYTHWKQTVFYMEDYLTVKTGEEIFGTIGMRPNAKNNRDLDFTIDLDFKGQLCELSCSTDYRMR
# Procedure, shortened: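 GST-tagged PRMT1 from baculovirus-infected cells, preincubated with compounds 30 min at room temperature in 20 mM Bicine pH 7.6, 1 mM TCEP, 0.005% BSG, 0.002% Tween 20. Reaction started with ³H-SAM plus biotinylated peptide, stopped with 300 µM cold SAM.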
# [1] = tested on: mono-methyl arginine in RKO cells; experiment: RKO Methylation Assay, In Cell Western (ICW) for mono-methyl arginine and DNA content; format: cell-based; conditions: Homo sapiens, RKO, 72 h
# Procedure, shortened: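 RKO cells treated with compound for 72 hours at 37 °C, then methanol-fixed and stained overnight at 4 °C with anti-mono-methyl arginine antibody, plus DRAQ5 for DNA. Signal ratio from 700 and 800 nm infrared scans normalized to DMSO (minimum) and 20 μM reference compound (maximum); EC30 from triplicate curves.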
# [2] = RKO cells, 72 hours, mono-methyl arginine, percent activation, single experiment or average of multiple experiments, read-out: EC30 (In Cell Western data, Numerical)
# [3] = read-out: EC30 (In Cell Western data, Numerical, μM)
pIC50 (human PRMT1),SMILES,"EC30 [1, 2] [µM]","EC30 [1, 3] [µM]"
5.82,CNCCN(C)Cc1cn(C2CC2)nc1-c1ccc(F)cc1 [Compound 13],> 20,
6.91,CNCCN(C)Cc1cnn(C2CC2)c1-c1ccc(F)cc1 [Compound 14],3.35,
5.36,CNCCN(C)Cc1cn(C(C)C)nc1-c1ccc(F)cc1 [Compound 15],> 20,
7.44,CNCCN(C)Cc1cn[nH]c1-c1cc(F)cc(F)c1 [Compound 18],,
7.70,CN(CCN)Cc1n[nH]cc1-c1ccc(C2CCOCC2)cc1 [Compound 145],1.95,
7.33,COc1ccc(-c2n[nH]cc2CN(C)CCN)c(Cl)c1 [Compound 146],7.16,
5.54,CN(CCN)Cc1c[nH]nc1-c1cc(C#N)ccc1Cl [Compound 147],> 20,
6.92,CN(CCN)Cc1c[nH]nc1-c1ccc(C(F)(F)F)cc1F [Compound 148],7.3,
7.21,CN(CCN)Cc1c[nH]nc1-c1cccc(N(C)C)c1 [Compound 149],4.32,
7.15,CCOC(=O)c1cccc(-c2n[nH]cc2CN(C)CCN)c1 [Compound 150],6.66,
6.91,COc1cc(F)ccc1-c1n[nH]cc1CN(C)CCN [Compound 151],9.73,
7.33,Cc1cc(F)ccc1-c1n[nH]cc1CN(C)CCN [Compound 152],5.78,
7.66,COc1ccc(-c2n[nH]cc2CN(C)CCN)cc1 [Compound 153],1.39,
6.18,COc1ccc(-c2n[nH]cc2CN(C)CCN)c(C(F)(F)F)c1 [Compound 154],> 20,
7.22,COc1ccc(-c2n[nH]cc2CN(C)CCN)c(C)c1 [Compound 155],10.6,
6.61,CN(CCN)Cc1c[nH]nc1-c1cc(Cl)ccc1F [Compound 156],9.56,
5.81,COc1ccc(Cl)cc1-c1n[nH]cc1CN(C)CCN [Compound 157],> 20,
5.63,Cc1ccc(C#N)cc1-c1n[nH]cc1CN(C)CCN [Compound 158],> 20,
7.14,Cc1ccc(F)cc1-c1n[nH]cc1CN(C)CCN [Compound 159],8.56,
6.78,COc1ccc(F)cc1-c1n[nH]cc1CN(C)CCN [Compound 160],17.7,
6.73,Cc1ccccc1-c1n[nH]cc1CN(C)CCN [Compound 161],14.9,
7.77,Cc1ccc(-c2n[nH]cc2CN(C)CCN)cc1 [Compound 162],1.34,
6.94,CCN(C)C(=O)c1ccc(-c2n[nH]cc2CN(C)CCN)cc1 [Compound 163],> 20,
6.97,CC(C)CN(C)C(=O)c1ccc(-c2n[nH]cc2CN(C)CCN)cc1 [Compound 164],18.5,

pIC50 (human PRMT1),SMILES,"EC30 [1, 2] [µM]","EC30 [1, 3] [µM]"
8.14,CCOc1ccc(-c2n[nH]cc2CN(C)CCN)cc1 [Compound 166],0.434,
8.03,COCCOc1ccc(-c2n[nH]cc2CN(C)CCN)cc1 [Compound 167],0.845,
6.51,Cc1[nH]nc(-c2ccc(F)cc2)c1CN(C)CCN [Compound 169],> 20,
7.94,CC(C)Cc1ccc(-c2c[nH]nc2CN(C)CCN)cc1 [Compound 170],1.39,
6.03,NCCN(CCO)Cc1c[nH]nc1-c1ccc(F)cc1 [Compound 171],> 20,
6.64,CN(CCN)Cc1c[nH]nc1-c1ccc(OCCN2CCOCC2)cc1 [Compound 172],> 20,
6.78,CN(CCN)Cc1c[nH]nc1-c1ccc2c(c1)NC(=O)CO2 [Compound 173],> 20,
7.92,CNCCN(C)Cc1c[nH]nc1-c1ccc(C(F)(F)F)cc1 [Compound 174],0.26,
7.98,CNCCN(C)Cc1c[nH]nc1-c1ccc(OC2CCOCC2)cc1 [Compound 175],0.174,
7.94,CC(C)Oc1ccc(-c2nn(C)cc2CN(C)CCN)cc1 [Compound 176],0.882,
8.00,CC(C)Oc1ccc(-c2c(CN(C)CCN)cnn2C)cc1 [Compound 177],0.295,
8.08,CN(CCN)Cc1c[nH]nc1-c1ccc(OC2CCOCC2)cc1 [Compound 178],0.954,
7.76,COCCCOc1ccc(-c2n[nH]cc2CN(C)CCN)cc1 [Compound 179],0.03,
8.30,CNCCN(C)Cc1c[nH]nc1-c1ccc(OC(C)C)c(F)c1 [Compound 181],0.046,
8.32,CNCCN(C)Cc1c[nH]nc1-c1ccc(Cl)c(F)c1 [Compound 182],0.179,
5.80,CN(CCN(C)C1CC1)Cc1c[nH]nc1-c1ccc(C#N)cc1 [Compound 184],2.41,
5.95,CN(CCN1CCC1)Cc1c[nH]nc1-c1ccc(C#N)cc1 [Compound 185],> 20,
6.83,CC(C)Oc1cccc(-c2n[nH]cc2CN(C)CCN)c1 [Compound 187],7.07,
6.79,CC(C)Oc1cc(-c2n[nH]cc2CN(C)CCN)ccc1F [Compound 188],12.3,
6.32,CCC(=O)N1CCN(c2ccc(-c3n[nH]cc3CN(C)CCN)cc2)CC1 [Compound 189],> 20,
6.18,CC(C)CN1C(=O)COc2ccc(-c3n[nH]cc3CN(C)CCN)cc21 [Compound 191],> 20,
6.92,CN(CCN)Cc1c[nH]nc1-c1ccc2c(c1)OCC(=O)N2C [Compound 192],> 20,
7.20,CC(C)CN1C(=O)COc2cc(-c3n[nH]cc3CN(C)CCN)ccc21 [Compound 193],9.72,
7.85,CN(CCN)Cc1c[nH]nc1-c1ccc(OCCO)cc1 [Compound 194],17,

pIC50 (human PRMT1),SMILES,"EC30 [1, 2] [µM]","EC30 [1, 3] [µM]"
7.94,CN(CCN)Cc1c[nH]nc1-c1ccc(OCCCO)cc1 [Compound 195],7.18,
6.68,CN(CCN)Cc1c[nH]nc1-c1ccc2c(c1)N(C)C(=O)CO2 [Compound 196],> 20,
6.17,CCNC(=O)c1cccc(-c2n[nH]cc2CN(C)CCN)c1 [Compound 197],> 20,
5.66,CCN(C)C(=O)c1cccc(-c2n[nH]cc2CN(C)CCN)c1 [Compound 198],> 20,
7.82,"Cc1cc(-c2n[nH]cc2CN(C)CCN)cc(C)c1OC(C)C [Compound 199, N^1-((3-(4-isopropoxy-3,5-dimethylphenyl)-1H-pyrazol-4-yl)methyl)-N^1-methylethane-1,2-diamine]",2.82,
8.37,CN(CCN)Cc1c[nH]nc1-c1ccc(Oc2ccccc2)c(C#N)c1 [Compound 202],0.941,
8.37,CN(CCN)Cc1n[nH]cc1-c1ccc(Oc2ccccc2)cc1 [Compound 203],1.72,
8.50,CNCCN(C)Cc1n[nH]cc1-c1ccc(Oc2ccccc2)cc1 [Compound 204],0.801,
8.61,CN(CCN)Cc1c[nH]nc1-c1ccc(Oc2cccc(F)c2)cc1 [Compound 205],1.69,
8.21,CNCCN(C)Cc1cn(C)nc1-c1ccc(Oc2ccccc2)cc1 [Compound 207],2.31,
8.38,CNCCN(C)Cc1cnn(C)c1-c1ccc(Oc2ccccc2)cc1 [Compound 208],0.696,
8.28,CNCCN(C)Cc1c[nH]nc1-c1ccc(OCCCOC)cc1 [Compound 209],0.557,
8.06,CNCCN(C)Cc1n[nH]cc1-c1ccc(OC(C)C)c(F)c1 [Compound 210],0.268,
8.22,CC(C)Oc1ccc(-c2c[nH]nc2CN(C)CCN)cc1Cl [Compound 211],0.523,
8.19,CNCCN(C)Cc1n[nH]cc1-c1ccc(OC(C)C)c(Cl)c1 [Compound 212],0.238,
7.58,CCn1cc(CN(C)CCNC)c(-c2ccc(OC(C)C)cc2)n1 [Compound 213],0.708,
7.28,CNCCN(C)Cc1cn(C2CCCC2)nc1-c1ccc(OC(C)C)cc1 [Compound 214],2.25,
7.09,CNCCN(C)Cc1cn(C2CCOC2)nc1-c1ccc(OC(C)C)cc1 (stereo not shown) [Compound 215],7.47,
7.67,CNCCN(C)Cc1cnn(C2CCOC2)c1-c1ccc(OC(C)C)cc1 (stereo not shown) [Compound 216],0.726,
7.73,CNCCN(C)Cc1cn(Cc2ccccc2)nc1-c1ccc(OC(C)C)cc1 [Compound 217],2.15,
7.23,C=CCn1cc(CN(C)CCNC)c(-c2ccc(OC(C)C)cc2)n1 [Compound 218],5.74,
7.73,C=CCn1ncc(CN(C)CCNC)c1-c1ccc(OC(C)C)cc1 [Compound 219],0.919,

SMILES,pIC50 (human PRMT1),"EC30 [1, 2] [µM]","EC30 [1, 3] [µM]"
CNCCN(C)Cc1cnn(C(C)C)c1-c1ccc(F)cc1 [Compound 16],5.68,,> 20
CNCCN(C)Cc1cn[nH]c1-c1ccc(C#N)cc1 [Compound 17],7.86,,> 20
CNCCN(C)Cc1cn(C)nc1-c1ccc(OC(C)C)c(Cl)c1 [Compound 206],8.15,,1.16
